Experimental data: patent US6410792B1, “Amide derivatives and methods for using the same as selective neuropeptide Y receptor antagonists” (Bayer Corporation, priority 1997, dated 2002)
Where a name gives a salt, the structure may show the parent alone. Read-outs that look alike come from different tables or passages of the source.

Columns and labels:
Human NPY5 receptor = target: T1, Human NPY5 receptor (Homo sapiens, UniProt Q15761); test: Human NPY5 receptor binding assay ([125I]PYY, membrane protein)
T1 sequence (Q15761 1-445): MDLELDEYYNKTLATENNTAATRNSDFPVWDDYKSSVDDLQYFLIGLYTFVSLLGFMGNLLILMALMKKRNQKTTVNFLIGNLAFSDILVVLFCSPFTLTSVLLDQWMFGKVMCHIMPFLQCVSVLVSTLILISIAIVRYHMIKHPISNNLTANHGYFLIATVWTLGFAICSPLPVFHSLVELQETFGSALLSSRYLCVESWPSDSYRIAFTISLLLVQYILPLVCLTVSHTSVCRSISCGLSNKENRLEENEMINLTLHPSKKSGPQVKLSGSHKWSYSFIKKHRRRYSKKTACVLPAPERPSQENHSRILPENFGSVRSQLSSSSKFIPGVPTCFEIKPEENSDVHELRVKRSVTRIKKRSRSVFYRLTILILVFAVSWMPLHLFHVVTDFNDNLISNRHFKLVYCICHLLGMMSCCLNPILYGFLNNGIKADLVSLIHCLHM
Procedure, shortened: (§1)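 Bound [125I]PYY is measured by gamma counting or liquid scintillation after vacuum filtration and ice-cold washes. Before that, membranes, 75-100 pM tracer and compound are incubated 2 hours at room temperature, with nonspecific binding defined by 1 μM PYY.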

Rat NPY5 receptor [1] = target: T2, Rat NPY5 receptor (Rattus norvegicus, UniProt Q63634); test: Rat NPY5 receptor binding assay ([125I]PYY, membrane protein)
T2 sequence (Q63634 1-445): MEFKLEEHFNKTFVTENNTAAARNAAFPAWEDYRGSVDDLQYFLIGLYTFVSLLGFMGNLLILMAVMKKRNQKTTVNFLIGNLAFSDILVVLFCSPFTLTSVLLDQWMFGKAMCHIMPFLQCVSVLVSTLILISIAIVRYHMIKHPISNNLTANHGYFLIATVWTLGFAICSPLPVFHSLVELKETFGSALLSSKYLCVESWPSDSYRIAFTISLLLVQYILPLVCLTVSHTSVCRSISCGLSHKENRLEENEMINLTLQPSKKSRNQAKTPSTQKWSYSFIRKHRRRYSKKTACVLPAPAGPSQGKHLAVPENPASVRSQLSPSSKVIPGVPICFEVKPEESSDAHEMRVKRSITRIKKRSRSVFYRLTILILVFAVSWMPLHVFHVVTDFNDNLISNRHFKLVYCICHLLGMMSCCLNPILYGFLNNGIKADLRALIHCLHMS
Procedure, shortened: as §1

Y2 receptor = target: T3, Y2 receptor (Homo sapiens, UniProt P49146); test: Y2 receptor binding assay ([125I]PYY, membrane protein); settings: membrane protein, read-out: hNPY2 IC50
T3 sequence (P49146 1-381): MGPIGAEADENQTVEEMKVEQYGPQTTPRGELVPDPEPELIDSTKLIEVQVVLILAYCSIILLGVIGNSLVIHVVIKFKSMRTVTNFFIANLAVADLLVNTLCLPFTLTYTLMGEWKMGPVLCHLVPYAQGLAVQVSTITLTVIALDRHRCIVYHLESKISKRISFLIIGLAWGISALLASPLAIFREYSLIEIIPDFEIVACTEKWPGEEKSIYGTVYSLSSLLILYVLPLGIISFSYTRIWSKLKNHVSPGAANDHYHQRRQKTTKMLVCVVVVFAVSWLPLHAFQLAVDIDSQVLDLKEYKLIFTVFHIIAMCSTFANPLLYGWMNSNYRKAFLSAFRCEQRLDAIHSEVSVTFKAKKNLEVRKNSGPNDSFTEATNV
Procedure, shortened: (§2)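 Filtration binding with membrane protein and drug dilution, 2 h at room temperature with mixing, radioactivity counted by gamma or scintillation. Y2: 25 pM [125I]PYY in Krebs-Ringer bicarbonate pH 7.4 with 0.01% BSA, nonspecific by 1 μM NPY. Y4/PP1: 50 pM [125I]hPP in HEPES-buffered saline pH 7.4 with protease inhibitors and 0.3% BSA, nonspecific by 1 μM hPP.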

Rat NPY5 receptor [2] = target: T2, Rat NPY5 receptor; test: Rat NPY5 cyclase assay (in vitro functional assay, forskolin-stimulated adenylate cyclase, cAMP); type: cell-based; settings: 20 min, percentage of forskolin-stimulated adenylate cyclase, read-out: rNPY5 % FSAC (10 μM)
Procedure: D. Rat NYP5 Cyclase Assay (In Vitro Functional Assay)
Cells stably expressing the rat NPY5 receptor are resuspended in serum-free DMEM containing 10 mM HEPES (pH 7.4) and 1 mM isobutylmethylxanthine (IBMX). […] forskolin and drug dilution are then added to the cells. After a 20 minute incubation of the samples at 37° C, the assay is stopped by placing the samples in boiling water for 3 minutes. The cAMP produced in each sample is quantitated with a radioimmunoassay kit (NEN DuPont). Data are expressed as a percentage of forskolin-stimulated adenylate cyclase.

human Y4/PP1 receptor = human Y4/PP1 receptor (Homo sapiens, UniProt P50391); test: Human Y4/PP1 receptor binding assay ([125I]human PP, membrane protein)
Chain of human Y4/PP1 receptor (P50391 whole entry): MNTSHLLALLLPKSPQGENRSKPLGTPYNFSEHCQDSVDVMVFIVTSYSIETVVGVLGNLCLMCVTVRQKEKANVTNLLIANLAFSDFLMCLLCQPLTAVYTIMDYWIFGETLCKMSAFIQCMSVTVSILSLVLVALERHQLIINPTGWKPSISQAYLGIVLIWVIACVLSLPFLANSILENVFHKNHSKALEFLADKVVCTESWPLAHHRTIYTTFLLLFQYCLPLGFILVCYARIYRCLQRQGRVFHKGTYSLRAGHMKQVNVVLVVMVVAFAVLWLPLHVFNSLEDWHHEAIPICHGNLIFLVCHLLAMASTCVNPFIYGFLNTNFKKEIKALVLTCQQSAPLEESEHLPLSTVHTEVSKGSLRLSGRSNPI
Procedure, shortened: as §2

Human NPY1 receptor = target: T4, Human NPY1 receptor (Homo sapiens, UniProt P25929); test: Human NPY1 receptor binding assay ([125I]PYY, SK-N-MC cells)
T4 construct: host or cells: SK-N-MC cells
T4 sequence (P25929 1-384): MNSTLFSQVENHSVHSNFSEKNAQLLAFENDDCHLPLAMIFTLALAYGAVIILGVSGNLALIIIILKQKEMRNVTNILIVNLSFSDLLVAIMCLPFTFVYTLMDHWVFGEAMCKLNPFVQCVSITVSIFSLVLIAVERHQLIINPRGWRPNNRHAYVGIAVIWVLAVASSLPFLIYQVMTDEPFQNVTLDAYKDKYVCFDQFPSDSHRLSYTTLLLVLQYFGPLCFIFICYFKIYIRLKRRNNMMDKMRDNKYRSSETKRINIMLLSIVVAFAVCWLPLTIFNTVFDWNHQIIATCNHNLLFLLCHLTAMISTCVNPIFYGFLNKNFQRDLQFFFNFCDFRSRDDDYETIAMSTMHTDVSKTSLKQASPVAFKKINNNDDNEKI
Procedure, shortened: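 Confluent SK-N-MC cells preincubated 30 min at room temperature in serum-free DMEM/25 mM HEPES pH 7.3 with BSA, bacitracin and PMSF, then incubated 3 h at room temperature with compound and ~50 pM [125I]PYY. Nonspecific binding defined with 1 μM NPY; bound radioactivity counted after Triton X-100 lysis.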

[3] = [125I]human PP, membrane protein, read-out: hNPY4 IC50
[4] = [125I]PYY, read-out: hNPY5 IC50
[5] = [125I]PYY, read-out: rNPY5 IC50
[6] = [125I]PYY, SK-N-MC cells, read-out: hNPYI IC50

SMILES | IC50 (Human NPY5 receptor; [125I]PYY binding, read-out: hNPY5 IC50) | IC50 (Rat NPY5 receptor [1]; [125I]PYY binding, read-out: rNPY5 IC50) | IC50 (Y2 receptor; [125I]PYY binding) | activity at 10 µM (Rat NPY5 receptor [2]; compound at 10 μM) | IC50 (human Y4/PP1 receptor; [3]) | IC50 (Human NPY5 receptor; [4]) | IC50 (Rat NPY5 receptor [1]; [5]) | IC50 (Y2 receptor; [125I]PYY) | activity at 10 µM (Rat NPY5 receptor [2]; 10 μM) | IC50 (Human NPY5 receptor; hNPY5 IC50, [125I]PYY) | IC50 (Rat NPY5 receptor [1]; rNPY5 IC50, [125I]PYY) | IC50 (Human NPY1 receptor; [6]) | IC50 (human Y4/PP1 receptor) | IC50 (Human NPY1 receptor)
CNC1(C(N)=O)CCN(CC(=O)Nc2ccc(C3CCCCC3)cc2)CC1 [Compound 30, 1-[(4-Cyclohexyl-phenylcarbamoyl)-methyl]-4-methylamino-piperidin-4-carboxylic acid amide] | 60 nM | 13 nM | > 5000 nM | 107% | – | – | – | – | – | – | – | – | – | –
Cc1ccc(OC(=O)c2ccc(NC(=O)CN3CCC(n4c(=O)[nH]c5ccccc54)CC3)cc2)cc1 [Compound 264, 4-{2-[4-(2-Oxo-2,3-dihydro-benzoimidazol-1-yl)-piperidin-1-yl]-acetylamino}-benzoic acid P-tolyl ester; hydrochloride] | – | – | – | – | > 5000 nM | 180 nM | 100 nM | > 5000 nM | 139% | – | – | – | – | –
CCCOC1(c2ccccc2)CCN(CC(=O)Nc2ccc(C3CCCCC3)cc2)CC1 [Compound 294, N-(4-Cyclohexyl-phenyl)-2-(4-phenyl-4-propoxy-piperidin-1-yl)-acetamide; hydrochloride] | – | – | – | – | > 5000 nM | – | – | > 5000 nM | 101% | 51 nM | 50 nM | > 5000 nM | – | –
N#CC1(c2ccccc2)CCN(CC(=O)Nc2ccc(C3CCCCC3)cc2)CC1 [Compound 295, 2-(4-Cyano-4-phenyl-piperidin-1-yl)-N-(4-cyclohexyl-phenyl)-acetamide; hydrochloride] | – | – | – | – | – | 4.7 nM | – | > 5000 nM | 101% | – | 4.5 nM | – | > 5000 nM | > 5000 nM
O=C(CN1CCCC1C(O)(c1ccccc1)c1ccccc1)Nc1ccc(C2CCCCC2)cc1 (stereo not drawn) [Compound 296, N-(4-Cyclohexyl-phenyl)-2-[2-(hydroxy-diphenyl-methyl)-pyrrolidin-1-yl]-acetamide; compound with oxalic acid] | – | – | – | – | > 5000 nM | 48 nM | 43 nM | > 5000 nM | 98% | – | – | > 5000 nM | – | –
NC(=O)C1CCCN1CC(=O)Nc1ccc(C2CCCCC2)cc1 (stereo not drawn) [Compound 297, 1-[(4-Cyclohexyl-phenylcarbamoyl)-methyl]-pyrrolidin-2-carboxylic acid amide; hydrochloride] | – | – | – | – | > 5000 nM | 32 nM | 45 nM | > 5000 nM | 103% | – | – | > 5000 nM | – | –
Cc1ccc(C2(O)CCN(CC(=O)Nc3ccc(C4CCCCC4)cc3)CC2)cc1 [Compound 298, N-(4-Cyclohexyl-phenyl)-2-(4-hydroxy-4-p-tolyl-piperidin-1-yl)-acetamide; hydrochloride] | – | – | – | – | > 5000 nM | – | – | > 5000 nM | 103% | 30 nM | 44 nM | > 5000 nM | – | –
